The record followed here is PubChem BioAssay (NCI).

“And” between values parts separate entries of the source, which are not always exact repeats. Identical values can stand only once.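 The compound was tested at five concentrations on cells cultured in 96-well plates, with a 48-hour exposure period. GI50 = concentration required for 50% inhibition of growth. The concentration for full growth arrest is given as TGI.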 Where only a bound is given, the exact number is not on record here.

Some test systems named below: COLO 205 colon; HCT-15 colon; HT29 colon; NCI-H460 lung; NCI/ADR-RES ovarian; SK-OV-3 ovarian; TK-10 renal.
What all share (assay): NCI anticancer screen, dose series, 48 h

Take `CCCCNC(=O)Oc1ccc(/C(=C(/CC)Cc2ccccc2)c2ccc(OCCN3CCCCCC3)cc2)cc1`: the GI50 in the assay with COLO 205 colon is 20.6 µM; in the assay with HCT-15 colon it was 16.4 µM; in the assay with HT29 colon it was 18.1 µM; in the assay on NCI-H460 lung it was 18.6 µM; with NCI/ADR-RES ovarian it was 42.1 µM; in the assay on SK-OV-3 ovarian it was over 100 µM. For the same compound, in the assay with TK-10 renal, the GI50 was 26.7 µM. The TGI was 39.7 µM in the assay with COLO 205 colon; 36.3 µM in the assay with HCT-15 colon; 36.3 µM with HT29 colon; 33.8 µM in the assay with NCI-H460 lung; over 100 µM in the assay on NCI/ADR-RES ovarian; over 100 µM in the assay on SK-OV-3 ovarian. The compound further yielded a TGI in the assay with TK-10 renal of 90.5 µM.

For the compound `CC(=O)c1cccc(-c2cccc(-c3ccn(CCN4CCOCC4)n3)c2)c1`, the GI50 in the assay on COLO 205 colon, in the assay on HCT-15 colon, in the assay with HT29 colon, in the assay on NCI-H460 lung, with NCI/ADR-RES ovarian and in the assay on SK-OV-3 ovarian was over 20 µM throughout. Further, the GI50 in the assay on TK-10 renal is over 20 µM. Further, the TGI in the assay with COLO 205 colon, with HCT-15 colon, with HT29 colon, with NCI-H460 lung, in the assay with NCI/ADR-RES ovarian and with SK-OV-3 ovarian was over 20 µM throughout. Further, in the assay on TK-10 renal, the TGI is over 20 µM.

Take `O=C(O)c1cccc(/C=C/c2ccccc2)c1`: the TGI in the assay with COLO 205 colon, in the assay on HCT-15 colon, with HT29 colon, with NCI-H460 lung, with NCI/ADR-RES ovarian and in the assay on SK-OV-3 ovarian was over 100 µM throughout. The TGI in the assay with TK-10 renal is over 100 µM.

On to `O=C(Nc1ccc(Br)cc1)Nc1nn(C(=O)Nc2ccc(Br)cc2)c2ccccc12`, for which the GI50 in the assay with COLO 205 colon was over 100 µM; with HCT-15 colon, over 74.2 µM; in the assay with HT29 colon, over 100 µM; in the assay with NCI-H460 lung, 34.1 µM; in the assay with NCI/ADR-RES ovarian it was 55.6 µM; with SK-OV-3 ovarian, 16.9 µM. Moreover, the GI50 in the assay on TK-10 renal is 39.2 µM. Also, the TGI in the assay with COLO 205 colon is over 100 µM; in the assay with HCT-15 colon, over 100 µM; with HT29 colon, over 100 µM; in the assay on NCI-H460 lung, over 100 µM; in the assay with NCI/ADR-RES ovarian it was over 100 µM; in the assay on SK-OV-3 ovarian, 54 µM. The compound further returned a TGI in the assay on TK-10 renal of over 100 µM.

For `C/C(=C(/c1ccc(O)cc1)c1ccc(Cl)cc1)c1ccccc1`, the GI50 is 2.44 µM in the assay on COLO 205 colon; 0.639 µM in the assay on HCT-15 colon; 0.852 µM in the assay with HT29 colon; 0.471 µM in the assay with NCI-H460 lung; 0.668 µM in the assay with NCI/ADR-RES ovarian; 1.04 µM in the assay with SK-OV-3 ovarian. In addition, the GI50 with TK-10 renal is 1.72 µM. The TGI with COLO 205 colon is 5.96 µM; in the assay on HCT-15 colon it was 2.06 µM; in the assay on HT29 colon, 3.17 µM; in the assay with NCI-H460 lung it was 0.945 µM; with NCI/ADR-RES ovarian, 1.89 µM; in the assay with SK-OV-3 ovarian, 3.76 µM. In the assay with TK-10 renal, this compound registered a TGI of 5 µM.

Regarding `C[C@]12CC[C@@H](OC(=O)N(CCCl)N=O)C[C@@H]1CC[C@@H]1[C@@H]2CC[C@]2(C)C(=O)CC[C@@H]12`, the GI50 is 1.6 µM with COLO 205 colon; 12.1 µM in the assay on HCT-15 colon; 3.26 µM with HT29 colon; 0.247 µM with NCI-H460 lung; 4.88 µM in the assay with NCI/ADR-RES ovarian; 3.43 µM in the assay on SK-OV-3 ovarian. Besides, the GI50 in the assay with TK-10 renal was 12 µM. Also, the TGI in the assay on COLO 205 colon came out at 3.88 µM; in the assay with HCT-15 colon, 32.4 µM; with HT29 colon, 15.9 µM; in the assay on NCI-H460 lung, 1.75 µM; with NCI/ADR-RES ovarian it was 30.2 µM; with SK-OV-3 ovarian, 14.3 µM. The compound also showed a TGI in the assay on TK-10 renal of 33.1 µM.

`CCCCCCNC(=O)Oc1ccc(/C(=C(/C)Cc2ccc(OC)cc2)c2ccc(OCCN(C)C)cc2)cc1`: the GI50 in the assay on COLO 205 colon was 4.71 µM; in the assay on HCT-15 colon, 2.02 µM; in the assay with HT29 colon it was 1.2 µM; in the assay on NCI-H460 lung, 4.22 µM; in the assay with NCI/ADR-RES ovarian, 5.07 µM; in the assay with SK-OV-3 ovarian, 4.99 µM. Also, the GI50 in the assay with TK-10 renal was 4.52 µM. The TGI was determined as 9.79 µM in the assay on COLO 205 colon; 6.6 µM in the assay on HCT-15 colon; 4.58 µM in the assay on HT29 colon; 8.93 µM in the assay on NCI-H460 lung; 10.7 µM in the assay with NCI/ADR-RES ovarian; 9.5 µM in the assay on SK-OV-3 ovarian. The compound further had a TGI with TK-10 renal of 9.02 µM.

In the case of `Oc1c(Cl)cc(Cl)cc1Sc1cc(Cl)cc(Cl)c1O`, the GI50 in the assay with COLO 205 colon was 2.22 µM and 1.67 µM; in the assay on HCT-15 colon, 3.44 µM and 3.06 µM; in the assay on HT29 colon, 3.71 µM and 2.22 µM; in the assay on NCI-H460 lung it was 2.98 µM and 2.56 µM; in the assay on NCI/ADR-RES ovarian, 2.92 µM and 2.74 µM; in the assay on SK-OV-3 ovarian, 2.66 µM. Besides, the GI50 in the assay on TK-10 renal was 3.99 µM. The TGI in the assay on COLO 205 colon is 5.23 µM and 3.03 µM; in the assay with HCT-15 colon, 14.8 µM and 12.5 µM; in the assay with HT29 colon it was 10.9 µM and 6.25 µM; in the assay with NCI-H460 lung, 9.91 µM and 8.1 µM; in the assay on NCI/ADR-RES ovarian it was 13.1 µM and 9.29 µM; in the assay with SK-OV-3 ovarian, 7.04 µM. Moreover, the TGI in the assay with TK-10 renal was 11.6 µM.

`COC(=O)c1ccc2c(c1)C(=O)c1c-2n(CCCN)c(=O)c2cc(OC)c(OC)cc12`: the GI50 is 12.4 µM in the assay on COLO 205 colon; 14.1 µM in the assay with HCT-15 colon; 13.8 µM with HT29 colon; 13 µM with NCI-H460 lung; 42.6 µM in the assay on NCI/ADR-RES ovarian; 20.3 µM with SK-OV-3 ovarian. Besides, in the assay on TK-10 renal, the GI50 was 16.9 µM. The TGI is 27.7 µM in the assay with COLO 205 colon; 30.5 µM in the assay with HCT-15 colon; 31.4 µM in the assay on HT29 colon; 29.5 µM in the assay with NCI-H460 lung; over 100 µM in the assay with NCI/ADR-RES ovarian; 49.4 µM in the assay on SK-OV-3 ovarian. The same compound registered a TGI in the assay with TK-10 renal of 37.3 µM.

Regarding `CC(=O)c1cc(-c2ccccc2N)n(-c2ccc3c(c2)OCO3)c1C`, the GI50 with COLO 205 colon is 0.328 µM; in the assay on HCT-15 colon it was 0.296 µM; in the assay with HT29 colon it was 0.292 µM; in the assay on NCI-H460 lung it was 0.169 µM; in the assay with NCI/ADR-RES ovarian, 0.211 µM; in the assay on SK-OV-3 ovarian it was 0.292 µM. In the assay on TK-10 renal, the GI50 is 0.623 µM. For the same compound, the TGI was 1.32 µM with COLO 205 colon; over 100 µM in the assay on HCT-15 colon; over 35.6 µM in the assay on HT29 colon; 13.2 µM with NCI-H460 lung; 45.3 µM in the assay with SK-OV-3 ovarian; over 100 µM in the assay on TK-10 renal.
